Data from paper PMC4178217, “Quinoline 3-sulfonamides inhibit lactate dehydrogenase A and reverse aerobic glycolysis in cancer cells” (Cancer & Metabolism, 2013).

Tested on: HepG2 cells
Details: HepG2 conditioned medium, 10 μM, 24 h
Description: Ten million Snu398 or HepG2 cells per flask were plated in R10 medium in T150 tissue culture flasks and allowed to attach overnight. The following morning, medium was replaced with medium containing either DMSO or 10 μM LDHA inhibitor, and cells were incubated for 24 h at 37°C. The conditioned medium was collected and cells were washed, lifted by trypsinization and pelleted. Both medium and cell samples were submitted for mass spectroscopy (MS) analysis of over 500 individual metabolites. All samples were prepared in replicates of five.

COc1ncc(-c2ccc3c(Nc4cc(C(=O)O)cc(C5CCCC5)c4)c(S(=O)(=O)NC4CC4)cnc3c2)c(OC)n1 [Compound 2]
fold change 1-oleoylglycerophosphocholine: 0.94 | fold change 1-palmitoleoylglycerophosphocholine*: 0.91 | fold change 1-palmitoylglycerophosphocholine: 0.94 | fold change 1-stearoylglycerophosphocholine: 0.95 | fold change 2'-O-methylguanosine: 0.70 | fold change 2-aminobutyrate: 0.91 | fold change 2-hydroxybutyrate (AHB): 0.89 | fold change 2-hydroxyglutarate: 0.93 | fold change 2-methylbutyroylcarnitine: 0.94 | fold change 2-methylbutyrylglycine: 0.81 | fold change 2-oleoylglycerophosphocholine*: 0.96 | fold change 2-palmitoylglycerophosphocholine*: 0.98 | fold change 2-stearoylglycerophosphocholine*: 1.16 | fold change 3-(4-hydroxyphenyl)lactate: 1.15 | fold change 3-dehydrocarnitine*: 1.04 | fold change 3-indoxyl sulfate: 0.96 | fold change 3-methyl-2-oxobutyrate: 0.99 | fold change 3-methyl-2-oxovalerate: 0.94 | fold change 4-acetamidobutanoate: 0.92 | fold change 4-guanidinobutanoate: 0.88 | fold change 4-methyl-2-oxopentanoate: 0.96 | fold change 5-oxoproline: 1.02 | fold change 6'-sialyllactose: 1.01 | fold change C-glycosyltryptophan*: 1.06 | fold change HEPES: 0.97 | fold change Isobar: 2-propylpentanoic acid, 2-ethylhexanoic acid: 1.01 | fold change N1-methyladenosine: 1.02 | fold change N1-methylguanosine: 0.87 | fold change N6-carbamoylthreonyladenosine: 1.10 | fold change N-acetylaspartate (NAA): 0.70 | fold change N-acetylneuraminate: 1.09 | fold change N-acetylornithine: 0.99 | fold change X - 02952: 8.06 | fold change X - 02973: 1.18 | fold change X - 03090: 0.99 | fold change X - 04015: 1.00 | fold change X - 04133: 1.08 | fold change X - 04135: 1.13 | fold change X - 04148: 0.80 | fold change X - 04252: 0.53 | fold change X - 04357: 1.09 | fold change X - 05907: 0.49 | fold change X - 06126: 0.78 | fold change X - 06911: 0.99 | fold change X - 08172: 0.15 | fold change X - 08889: 1.21 | fold change X - 08895: 1.11 | fold change X - 09008: 0.87 | fold change X - 09026: 0.58 | fold change X - 10475: 0.76 | fold change X - 10476: 0.43 | fold change X - 10634: 0.56 | fold change X - 10740: 1.18 | fold change X - 10869: 0.93 | fold change X - 11081: 1.03 | fold change X - 11315: 0.83 | fold change X - 11533: 1.04 | fold change X - 11593: 1.12 | fold change X - 11787: 1.01 | fold change X - 12013: 1.09 | fold change X - 12015: 0.97 | fold change X - 12117: 0.78 | fold change X - 12216: 0.72 | fold change X - 12339: 1.38 | fold change X - 12435: 0.91 | fold change X - 12602: 0.93 | fold change X - 12729: 1.15 | fold change X - 12749: 0.95 | fold change X - 12776: 0.86 | fold change X - 12786: 1.07 | fold change X - 12792: 0.77 | fold change X - 12799: 1.04 | fold change X - 12944: 0.83 | fold change X - 13100: 1.00 | fold change X - 13103: 0.95 | fold change X - 13104: 1.11 | fold change X - 13110: 1.00 | fold change X - 13115: 0.98 | fold change X - 13117: 1.01 | fold change X - 13166: 0.95 | fold change X - 13483: 0.84 | fold change X - 13491: 1.19 | fold change X - 13494: 0.82 | fold change X - 13496: 1.11 | fold change X - 13507: 1.00 | fold change X - 13553: 1.05 | fold change X - 13581: 1.00 | fold change X - 13857: 0.74 | fold change X - 14056: 0.96 | fold change X - 14574: 0.86 | fold change X - 14588: 0.93 | fold change X - 15558: 1.17 | fold change X - 15559: 1.15 | fold change X - 15562: 1.13 | fold change X - 15563: 1.13 | fold change X - 15678: 1.32 | fold change X - 15808: 1.14 | fold change X - 16103: 0.86 | fold change X - 16116: 1.18 | fold change X - 16200: 1.04 | fold change X - 16206: 0.95 | fold change X - 16439: 1.13 | fold change X - 16444: 1.07 | fold change X - 17112: 1.02 | fold change X - 17430: 1.13 | fold change acetylcarnitine: 0.95 | fold change acetylphosphate: 0.92 | fold change alanine: 0.99 | fold change alanylglutamine: 0.96 | fold change allantoin: 0.85 | fold change arabitol: 0.72 | fold change arachidonate (20:4n6): 1.07 | fold change arginine: 0.98 | fold change asparagine: 0.30 | fold change aspartate: 0.84 | fold change aspartylleucine: 1.01 | fold change beta-alanine: 1.41 | fold change beta-hydroxyisovalerate: 0.84 | fold change beta-hydroxypyruvate: 0.79 | fold change betaine: 0.97 | fold change biotin: 0.96 | fold change butyrylcarnitine: 0.90 | fold change caproate (6:0): 0.83 | fold change caprylate (8:0): 0.79 | fold change carnitine: 1.03 | fold change catechol sulfate: 1.01 | fold change choline: 1.06 | fold change citrate: 0.97 | fold change citrulline: 0.87 | fold change creatine: 1.02 | fold change creatinine: 0.94 | fold change cyclo(leu-ala): 0.49 | fold change cysteine: 0.78 | fold change cysteine sulfinic acid: 1.00 | fold change cysteine-glutathione disulfide: 1.28 | fold change deoxycarnitine: 0.98 | fold change dimethyl sulfoxide*: 1.04 | fold change dimethylarginine (SDMA + ADMA): 0.97 | fold change docosahexaenoate (DHA; 22:6n3): 0.92 | fold change docosapentaenoate (n3 DPA; 22:5n3): 1.17 | fold change erythritol: 0.92 | fold change erythronate*: 0.99 | fold change ethanolamine: 1.13 | fold change folate: 0.99 | fold change fructose: 1.06 | fold change fumarate: 0.80 | fold change gamma-glutamylisoleucine*: 1.02 | fold change gamma-glutamylleucine: 0.87 | fold change gamma-glutamylphenylalanine: 0.85 | fold change gamma-glutamylvaline: 0.73 | fold change glucose: 0.87 | fold change glutamate: 1.00 | fold change glutamine: 0.96 | fold change glycerate: 1.05 | fold change glycerol: 1.09 | fold change glycerol 3-phosphate (G3P): 1.47 | fold change glycerophosphorylcholine (GPC): 0.95 | fold change glycine: 0.87 | fold change glycochenodeoxycholate: 1.01 | fold change glycocholate: 0.96 | fold change glycylglycine: 0.55 | fold change glycylleucine: 0.85 | fold change glycyltyrosine: 1.01 | fold change glycylvaline: 1.06 | fold change heme*: 0.95 | fold change hexadecanedioate: 0.84 | fold change hippurate: 0.98 | fold change histidine: 1.02 | fold change homostachydrine*: 1.00 | fold change hydroquinone: 0.97 | fold change indolelactate: 1.03 | fold change isobutyrylcarnitine: 0.98 | fold change isoleucine: 1.02 | fold change isovalerate: 0.80 | fold change isovalerylcarnitine: 1.29 | fold change kynurenate: 1.06 | fold change kynurenine: 1.00 | fold change lactate: 0.89 | fold change leucine: 1.03 | fold change lysine: 0.70 | fold change lysylleucine: 1.12 | fold change malate: 1.02 | fold change mannitol: 0.57 | fold change methionine: 0.96 | fold change myo-inositol: 0.85 | fold change nicotinamide: 0.80 | fold change ornithine: 0.79 | fold change p-aminobenzoate (PABA): 0.99 | fold change p-cresol sulfate: 0.91 | fold change palmitoyl sphingomyelin: 0.92 | fold change pantothenate: 1.00 | fold change phenol red: 0.97 | fold change phenol sulfate: 0.93 | fold change phenylacetylglycine: 1.02 | fold change phenylalanine: 0.98 | fold change phosphate: 0.99 | fold change pipecolate: 0.97 | fold change pro-hydroxy-pro: 0.98 | fold change proline: 0.93 | fold change propionylcarnitine: 1.00 | fold change pseudouridine: 0.96 | fold change putrescine: 0.90 | fold change pyridoxate: 0.92 | fold change pyridoxine (Vitamin B6): 1.04 | fold change pyruvate: 1.37 | fold change ribitol: 0.75 | fold change riboflavin (Vitamin B2): 0.98 | fold change scyllo-inositol: 1.09 | fold change serine: 0.61 | fold change serotonin (5HT): 0.82 | fold change sorbitol: 0.53 | fold change succinate: 1.07 | fold change taurocholate: 1.00 | fold change taurodeoxycholate: 0.93 | fold change tetradecanedioate: 1.13 | fold change thiamin (Vitamin B1): 1.00 | fold change threitol: 0.99 | fold change threonine: 0.96 | fold change trans-4-hydroxyproline: 0.90 | fold change tryptophan: 1.03 | fold change tyrosine: 0.99 | fold change uracil: 0.88 | fold change urea: 0.83 | fold change uridine: 0.93 | fold change valerylcarnitine: 1.27 | fold change valine: 0.98 | fold change xylitol: 0.88
